The supplement of paper PMC10307832

Assays:
Experiment in all cases: relative viability (nuclei count vs DMSO), 5 days (fraction); higher = more cells survive
EMC-BAC-2 = test system: EMC-BAC-2
In short: (§1)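 A single step with final 0.05% Triton X-100, 1% formaldehyde and 1 ug/ml Hoechst fixed the cells and stained nuclei 5 days after treatment. Lung cancer cell lines in 1536-well plates had been treated by pin tool the day after seeding with one drug alone or a fixed anchor-drug dose plus five library-drug doses (not always all listed) in √10 steps, and nuclei were counted on 4× images. Relative viability is the ratio of nuclei in treated wells to nuclei in vehicle wells, taken as the median of duplicate plates.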

EPLC-272H = test system: EPLC-272H
In short: as §1

H3255 = test system: H3255
In short: as §1

HOP-62 = test system: HOP-62
In short: as §1

LCLC-97TM1 = test system: LCLC-97TM1
In short: as §1

LXF-289 = test system: LXF-289
In short: as §1

NCI-H1563 = test system: NCI-H1563
In short: as §1

NCI-H1734 = test system: NCI-H1734
In short: as §1

NCI-H1915 = test system: NCI-H1915
In short: as §1

NCI-H1993 = test system: NCI-H1993
In short: as §1

NCI-H2009 = test system: NCI-H2009
In short: as §1

NCI-H2023 = test system: NCI-H2023
In short: as §1

NCI-H2085 = test system: NCI-H2085
In short: as §1

NCI-H2126 = test system: NCI-H2126
In short: as §1

NCI-H2347 = test system: NCI-H2347
In short: as §1

NCI-H322M = test system: NCI-H322M
In short: as §1

NCI-H647 = test system: NCI-H647
In short: as §1

NCI-H661 = test system: NCI-H661
In short: as §1

NCI-H727 = test system: NCI-H727
In short: as §1

PC-14 = test system: PC-14
In short: as §1

SK-LU-1 = test system: SK-LU-1
In short: as §1

SW 1573 = test system: SW 1573
In short: as §1

CCN(CC)CCCCNc1ncc2cc(-c3cc(OC)cc(OC)c3)c(NC(=O)NC(C)(C)C)nc2n1 + Cc1nc(NC(=O)N2CCC[C@H]2C(N)=O)sc1-c1ccnc(C(C)(C)C(F)(F)F)c1 [Alpelisib] (partner 2 µM)
relative viability (EMC-BAC-2; first compound 0.01 µM): 0.731 | relative viability (EMC-BAC-2; first compound 0.03162 µM): 0.798 | relative viability (EMC-BAC-2; first compound 0.1 µM): 0.811 | relative viability (EMC-BAC-2; first compound 0.3162 µM): 0.804 | relative viability (EMC-BAC-2; first compound 1 µM): 0.688 | relative viability (EPLC-272H; first compound 0.01 µM): 0.918 | relative viability (EPLC-272H; first compound 0.1 µM): 1.01 | relative viability (EPLC-272H; first compound 0.3162 µM): 1.07 | relative viability (EPLC-272H; first compound 1 µM): 0.883 | relative viability (H3255; first compound 0.01 µM): 0.788 | relative viability (H3255; first compound 0.03162 µM): 0.71 | relative viability (H3255; first compound 0.1 µM): 0.728 | relative viability (H3255; first compound 0.3162 µM): 0.713 | relative viability (H3255; first compound 1 µM): 0.689 | relative viability (HOP-62; first compound 0.01 µM): 0.82 | relative viability (HOP-62; first compound 0.03162 µM): 1.1 | relative viability (HOP-62; first compound 0.1 µM): 0.89 | relative viability (HOP-62; first compound 0.3162 µM): 1.04 | relative viability (HOP-62; first compound 1 µM): 0.726 | relative viability (LCLC-97TM1; first compound 0.03162 µM): 0.265 | relative viability (LCLC-97TM1; first compound 0.1 µM): 0.221 | relative viability (LCLC-97TM1; first compound 0.3162 µM): 0.216 | relative viability (LCLC-97TM1; first compound 1 µM): 0.244 | relative viability (LXF-289; first compound 0.01 µM): 1.07 | relative viability (LXF-289; first compound 0.03162 µM): 1.06 | relative viability (LXF-289; first compound 0.1 µM): 1.19 | relative viability (LXF-289; first compound 0.3162 µM): 1.02 | relative viability (LXF-289; first compound 1 µM): 0.971 | relative viability (NCI-H1563; first compound 0.01 µM): 0.849 | relative viability (NCI-H1563; first compound 0.03162 µM): 0.96 | relative viability (NCI-H1563; first compound 0.1 µM): 0.896 | relative viability (NCI-H1563; first compound 0.3162 µM): 0.771 | relative viability (NCI-H1563; first compound 1 µM): 0.619 | relative viability (NCI-H1734; first compound 0.01 µM): 0.728 | relative viability (NCI-H1734; first compound 0.03162 µM): 0.69 | relative viability (NCI-H1734; first compound 0.1 µM): 0.713 | relative viability (NCI-H1734; first compound 0.3162 µM): 0.707 | relative viability (NCI-H1734; first compound 1 µM): 0.708 | relative viability (NCI-H1915; first compound 0.01 µM): 1.07 | relative viability (NCI-H1915; first compound 0.03162 µM): 1.15 | relative viability (NCI-H1915; first compound 0.1 µM): 1.06 | relative viability (NCI-H1915; first compound 0.3162 µM): 1.14 | relative viability (NCI-H1915; first compound 1 µM): 1.07 | relative viability (NCI-H1993; first compound 0.01 µM): 0.635 | relative viability (NCI-H1993; first compound 0.03162 µM): 0.707 | relative viability (NCI-H1993; first compound 0.1 µM): 0.691 | relative viability (NCI-H1993; first compound 0.3162 µM): 0.677 | relative viability (NCI-H1993; first compound 1 µM): 0.672 | relative viability (NCI-H2009; first compound 0.01 µM): 1.15 | relative viability (NCI-H2009; first compound 0.03162 µM): 1.14 | relative viability (NCI-H2009; first compound 0.1 µM): 1.24 | relative viability (NCI-H2009; first compound 0.3162 µM): 1.18 | relative viability (NCI-H2009; first compound 1 µM): 1.16 | relative viability (NCI-H2023; first compound 0.01 µM): 0.685 | relative viability (NCI-H2023; first compound 0.03162 µM): 0.608 | relative viability (NCI-H2023; first compound 0.1 µM): 0.615 | relative viability (NCI-H2023; first compound 0.3162 µM): 0.676 | relative viability (NCI-H2023; first compound 1 µM): 0.529 | relative viability (NCI-H2085; first compound 0.01 µM): 1.04 | relative viability (NCI-H2085; first compound 0.03162 µM): 0.999 | relative viability (NCI-H2085; first compound 0.1 µM): 1.02 | relative viability (NCI-H2085; first compound 0.3162 µM): 0.983 | relative viability (NCI-H2085; first compound 1 µM): 0.907 | relative viability (NCI-H2126; first compound 0.01 µM): 0.736 | relative viability (NCI-H2126; first compound 0.03162 µM): 0.734 | relative viability (NCI-H2126; first compound 0.1 µM): 0.742 | relative viability (NCI-H2126; first compound 0.3162 µM): 0.815 | relative viability (NCI-H2126; first compound 1 µM): 0.75 | relative viability (NCI-H2347; first compound 0.01 µM): 1.08 | relative viability (NCI-H2347; first compound 0.03162 µM): 1.09 | relative viability (NCI-H2347; first compound 0.1 µM): 1.04 | relative viability (NCI-H2347; first compound 0.3162 µM): 1.09 | relative viability (NCI-H2347; first compound 1 µM): 1.11 | relative viability (NCI-H322M; first compound 0.01 µM): 0.822 | relative viability (NCI-H322M; first compound 0.03162 µM): 0.782 | relative viability (NCI-H322M; first compound 0.1 µM): 0.77 | relative viability (NCI-H322M; first compound 0.3162 µM): 1.02 | relative viability (NCI-H322M; first compound 1 µM): 0.75 | relative viability (NCI-H647; first compound 0.01 µM): 1.41 | relative viability (NCI-H647; first compound 0.03162 µM): 1.3 | relative viability (NCI-H647; first compound 0.1 µM): 1.31 | relative viability (NCI-H647; first compound 0.3162 µM): 1.13 | relative viability (NCI-H647; first compound 1 µM): 0.465 | relative viability (NCI-H661; first compound 0.01 µM): 0.537 | relative viability (NCI-H661; first compound 0.03162 µM): 0.382 | relative viability (NCI-H661; first compound 0.1 µM): 0.657 | relative viability (NCI-H661; first compound 0.3162 µM): 0.858 | relative viability (NCI-H661; first compound 1 µM): 0.535 | relative viability (NCI-H727; first compound 0.01 µM): 0.586 | relative viability (NCI-H727; first compound 0.03162 µM): 0.449 | relative viability (NCI-H727; first compound 0.1 µM): 0.678 | relative viability (NCI-H727; first compound 0.3162 µM): 0.579 | relative viability (NCI-H727; first compound 1 µM): 0.543 | relative viability (PC-14; first compound 0.01 µM): 1.02 | relative viability (PC-14; first compound 0.03162 µM): 1.08 | relative viability (PC-14; first compound 0.1 µM): 0.879 | relative viability (PC-14; first compound 0.3162 µM): 1.16 | relative viability (PC-14; first compound 1 µM): 0.943 | relative viability (SK-LU-1; first compound 0.01 µM): 1.06 | relative viability (SK-LU-1; first compound 0.03162 µM): 1.08 | relative viability (SK-LU-1; first compound 0.1 µM): 1.18 | relative viability (SK-LU-1; first compound 0.3162 µM): 1.21 | relative viability (SK-LU-1; first compound 1 µM): 0.65 | relative viability (SW 1573; first compound 0.01 µM): 0.727 | relative viability (SW 1573; first compound 0.03162 µM): 0.874 | relative viability (SW 1573; first compound 0.1 µM): 0.929 | relative viability (SW 1573; first compound 0.3162 µM): 0.796 | relative viability (SW 1573; first compound 1 µM): 0.782
